Reference: the supplement of paper PMC10307832

Key:
Assay in all cases: relative viability (nuclei count vs DMSO), 5 days (fraction); higher = more cells survive
[1] = compound: CCOC(=O)CCNc1cc(N2CCc3ccccc3CC2)nc(-c2ccccn2)n1 [GSK-J4] + COc1cc2c(Oc3ccc(NC(=O)C4(C(=O)Nc5ccc(F)cc5)CC4)cc3F)ccnc2cc1OCCCN1CCOCC1 [Foretinib] (partner 0.25 µM)
How it was run: (§1)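 Lung cancer cell lines in 1536-well plates were dosed by pin tool the day after seeding, either with one drug alone or with a fixed anchor-drug dose plus five library-drug doses (not always all listed) in √10 steps. After 5 days, cells were fixed and their nuclei stained in one step (final 0.05% Triton X-100, 1% formaldehyde, 1 ug/ml Hoechst), then counted on 4× images. Relative viability is the nuclei count in treated wells divided by that in vehicle wells. Values are medians of duplicate plates.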

[2] = compound: CN1CCC(CC1)OC2=CC(=C(C=C2)NC3=NC=C4C(=N3)N(C(=O)N4C)C5CCCC5)OC [AZ3146] + CC1(C)CCC(c2ccc(Cl)cc2)=C(CN2CCN(c3ccc(C(=O)NS(=O)(=O)c4ccc(N[C@H](CCN5CCOCC5)CSc5ccccc5)c(S(=O)(=O)C(F)(F)F)c4)cc3)CC2)C1 [Navitoclax] (partner 0.5 µM)
How it was run: as §1

[3] = compound: CN1CCC(CC1)OC2=CC(=C(C=C2)NC3=NC=C4C(=N3)N(C(=O)N4C)C5CCCC5)OC [AZ3146] + Nc1ncn([C@H]2C[C@H](O)[C@@H](CO)O2)c(=O)n1 [Decitabine] (partner 2 µM)
How it was run: as §1

[4] = compound: CCOC(=O)CCNc1cc(N2CCc3ccccc3CC2)nc(-c2ccccn2)n1 [GSK-J4] + Nc1ncn([C@H]2C[C@H](O)[C@@H](CO)O2)c(=O)n1 [Decitabine] (partner 2 µM)
How it was run: as §1

| Cell Line | relative viability ([1]; first compound 0.5 µM) | relative viability ([1]; first compound 1.581 µM) | relative viability ([1]; first compound 15.81 µM) | relative viability ([1]; first compound 50 µM) | relative viability ([2]; first compound 0.08 µM) | relative viability ([2]; first compound 0.253 µM) | relative viability ([2]; first compound 0.8 µM) | relative viability ([2]; first compound 2.53 µM) | relative viability ([2]; first compound 8 µM) | relative viability ([3]; first compound 0.08 µM) | relative viability ([3]; first compound 0.253 µM) | relative viability ([3]; first compound 0.8 µM) | relative viability ([3]; first compound 2.53 µM) | relative viability ([3]; first compound 8 µM) | relative viability ([4]; first compound 0.5 µM) | relative viability ([4]; first compound 1.581 µM) | relative viability ([4]; first compound 15.81 µM) | relative viability ([4]; first compound 50 µM) | relative viability ([1]; first compound 5 µM) | relative viability ([4]; first compound 5 µM) |
| --- | --- | --- | --- | --- | --- | --- | --- | --- | --- | --- | --- | --- | --- | --- | --- | --- | --- | --- | --- | --- |
| HCC-366 | 0.955 | 0.881 | 0.915 | 0.874 | 1.01 | 0.958 | 1.06 | 1.16 | 1.14 | 0.342 | 0.39 | 0.296 | 0.352 | 0.321 | 0.33 | 0.283 | 0.283 | 0.277 |  |  |
| HCC-827 | 1.02 | 1.07 | 0.955 | 0.847 | 0.964 | 1.02 | 0.997 | 1.02 | 0.998 | 0.308 | 0.364 | 0.31 | 0.3 | 0.347 | 0.345 | 0.31 | 0.292 | 0.31 | 1.05 | 0.482 |
| HOP-62 | 1 | 0.882 | 1.03 | 0.766 | 1.08 | 1.05 | 0.938 | 1.13 | 0.913 | 0.22 | 0.195 | 0.207 | 0.248 | 0.203 | 0.257 | 0.233 | 0.193 | 0.225 | 1.02 | 0.2 |
| IA-LM | 1.09 | 1.15 | 1.16 | 0.334 | 0.713 | 0.785 | 0.699 | 0.881 | 0.156 |  |  |  |  |  |  |  |  |  | 1.32 |  |
| LC-2-ad | 0.909 | 0.763 | 0.781 | 0.775 | 0.425 | 0.385 | 0.649 | 0.519 | 0.685 | 0.729 | 0.783 | 0.728 | 0.781 | 0.716 | 0.746 | 0.803 | 0.776 | 0.793 | 0.868 | 0.866 |
| LCLC-97TM1 | 0.972 | 0.953 | 0.856 | 0.561 |  |  | 0.541 | 0.361 | 0.544 | 0.209 | 0.254 | 0.225 | 0.222 | 0.248 | 0.213 | 0.237 | 0.262 | 0.215 | 0.909 | 0.225 |
| LCLC-103H | 0.8 | 0.617 | 0.593 | 0.52 |  |  |  |  |  | 0.675 | 0.732 | 0.742 | 0.741 | 0.729 | 0.784 | 0.624 | 0.722 | 0.572 | 0.789 | 0.786 |
| LK-2 | 1.26 |  | 0.794 | 0.805 | 0.686 | 0.889 | 0.994 | 0.911 | 0.929 |  | 0.372 | 0.284 | 0.319 | 0.337 | 0.222 | 0.283 | 0.262 | 0.338 | 1.31 | 0.447 |
| LOU-NH91 | 0.963 | 0.925 | 0.893 | 0.918 | 0.685 | 0.609 | 0.76 | 0.697 | 0.7 | 0.816 | 0.77 | 0.886 | 0.829 | 0.783 | 0.789 | 0.798 | 0.774 | 0.805 | 0.789 | 0.703 |
